Results on one molecule are retold here after publication PMC5483439, “The Effect of Pungent and Tingling Compounds from Piper nigrum L. on Background K^+ Currents” (Frontiers in Pharmacology, 2017).

The target of one test is T1, mKCNK3 (Mus musculus, UniProt O35111).
T1 construct: expressed in transfected cells; host or cells: Xenopus laevis oocytes injected with cRNA (plasmid pSGEM)
Description: Two-electrode voltage clamp on Xenopus oocytes expressing mKCNK3. The format is cell-based. The following applies: 1–1000 μM. An excerpt: Human KCNK3 (TASK-1, K2P3.1) cloned into the expression vector pIRES-CD8 was a gift from Dr. Fabrice Duprat (Institut National de la Santé et de la Recherche Médicale, Antipolis, France). Human KCNK18 (hTRESK, K2P18.1), cloned into the plasmid pEXO, was a gift from Dr. P. Enyedi (Semmelweis University, Budapest, Hungary). These plasmids were linearized with the restriction enzymes BamHI and XbaI, respectively, and then used as templates for in vitro transcription. Human KCNK9 (hTASK-3, K2P9.1) cloned into the expression vector pCR4-TOPO, was purchased from Imagenes (Berlin, Germany). The plasmid was linearized with the restriction enzyme SspI, to generate a linear cDNA template for in vitro transcription. mKCNK3 was isolated from mouse heart by standard procedures and inserted into pSGEM. mKCNK9 and mKCNK18 were kindly provided by Dr. D. Bayliss (University of Virginia, Charlottesville, VA, United States) and Prof. Dr. P. Enyedi (Semmelweis University, Budapest, Hungary). Both channels were subcloned into pSGEM. The pSGEM plasmids were subsequently linearized with the restriction enzyme PacI. The capped RNAs were synthesized in the presence of the capping analog m7G(5′)ppp(5′)G using the AmpliCap-T7 Message Maker kit (Epicentre, Madison, WI, United States). The cRNA was dissolved in nuclease-free water to obtain a final concentration of 100 ng/μL. […]
For orientation: Two-electrode voltage clamp holds a large cell at a set potential and records current.

For the next test, the system named is tongue surface. Also on record: method as in Dawid et al., 2012. The conditions noted are these: human, filter paper on tongue; ref Dawid et al., 2012; cited from earlier work.

T1 sequence (O35111 whole entry): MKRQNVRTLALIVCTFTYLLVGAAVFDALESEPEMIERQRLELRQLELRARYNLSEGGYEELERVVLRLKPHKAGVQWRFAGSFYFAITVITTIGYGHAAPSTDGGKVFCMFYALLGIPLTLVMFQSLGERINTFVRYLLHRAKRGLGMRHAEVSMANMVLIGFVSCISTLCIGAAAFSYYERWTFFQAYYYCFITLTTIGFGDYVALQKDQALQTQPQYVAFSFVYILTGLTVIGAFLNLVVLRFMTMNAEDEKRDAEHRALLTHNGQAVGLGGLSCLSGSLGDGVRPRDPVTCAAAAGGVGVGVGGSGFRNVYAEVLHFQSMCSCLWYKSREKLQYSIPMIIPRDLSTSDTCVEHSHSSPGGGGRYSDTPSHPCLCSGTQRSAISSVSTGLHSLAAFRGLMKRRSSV

One may read the IC50 as the point on the concentration scale where inhibition reaches its midpoint. Read a low IC50 as greater potency. Consider `O=C(/C=C/C=C/c1ccc2c(c1)OCO2)N1CCCCC1` [1a, piperine], for which the IC50 at mKCNK3 came out at 30 ± 2.8 µM. Also, in the test on tongue surface, the pungent threshold concentration is 3.0 nmol/cm^2.
